Patent US20250248979A1, “NOVEL GPX4 INHIBITORS AND USES THEREOF” (THE TRUSTEES OF COLUMBIA UNIVERSITY IN THE CITY OF NEW YORK, priority 2022, published 2025)
In brackets after ≈: the same amount, converted by molar mass. Like-named read-outs stand apart in the source and are kept apart here.

Experiments:
HT-1080 cells = assay: Cellular dose response assay, HT-1080 with and without Fer-1; assay type: cell-based, human; conditions: for Selectivity: ferroptosis selectivity; for ferroptosis induction / potency in HT-1080 cells, result in words: RSL3 as control
In short: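 1500 cells/well, o/n; 12-pt 2-fold dilns, ±Fer-1 (HT-1080), 0.4% DMSO, n=3 technical; 48 h, 37 °C/5% CO2; CellTiter-Glo lum. Huh7, HLF, HT-1080 grown in DMEM/10% HI-FBS; SK-HEP-1 in EMEM/10% HI-FBS.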

in vitro [1] = assay type: in vitro ADME, human; conditions: human, microsomes
Description: (§1) […]. The incubation timepoints measured were 0, 5, 10, 15, 30, and 45 minutes. All samples were prepared in duplicate and analyzed by LC-MS/MS.

GPX4 = target: T1, GPX4 (Homo sapiens, UniProt P36969); assay: GPX4 activity assay in cell lysates (NADPH-coupled); assay type: biochemical; set-up: endogenous in cells; host or cells: A-673 cell lysate; conditions: for GPX4% inhibition at 20 (μM) / GPX4% inhibition at 200 (μM): generation 2; for GPX4 inhibition / GPX4% inhibition at 200 (μM): 200 μM
T1 sequence (P36969 1-170 isoform P36969-2): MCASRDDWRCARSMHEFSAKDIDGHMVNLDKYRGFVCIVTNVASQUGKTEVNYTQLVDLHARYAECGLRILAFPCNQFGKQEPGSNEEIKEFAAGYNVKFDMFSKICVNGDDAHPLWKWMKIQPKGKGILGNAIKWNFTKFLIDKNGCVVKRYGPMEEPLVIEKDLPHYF
In short: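 Native GPX4 in lysates of A-673 cells grown with 20 nM sodium selenite; lysate preincubated with compound 45 min at 37 °C in pH 8.0 buffer with 3 mM GSH, 0.5 mM NADPH and glutathione reductase. Reaction started with phosphatidylcholine hydroperoxide; NADPH consumption followed at 340 nm over 25 min; triplicates.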

in vitro [2] = assay type: in vitro ADME, mouse; conditions: mouse, microsomes
Description: as §1

[3] = Kinetic aqueous solubility
Huh7 cells = assay: Cellular dose response assay, Huh7; assay type: cell-based, human; conditions: Table 7
Text: (§2) HT-1080 (human [Homo sapiens] […] fibrosarcoma), A-673 (human [Homo sapiens] […] Ewing's sarcoma), and SK-HEP-1 (human [Homo sapiens] […] hepatic adenocarcinoma), cells were obtained from ATCC. Huh7 (human [Homo sapiens] […] hepatocellular carcinoma), HLF (human [Homo sapiens] […] hepatocellular carcinoma), HepG2 (human [Homo sapiens] […] hepatocellular carcinoma), cells were obtained from the Cancer Cell Bank at Columbia University Irving Medical Center. HT-1080, A-673, Huh-7, and HLF cells were grown in Dulbecco's Modified Eagle Medium (DMEM) supplemented with 10% heat inactivated fetal bovine serum (HI-FBS), 1% non-essential amino acids, and 1% penicillin streptomycin. HepG2 and SK-HEP-1 cells were grown in Eagle's Minimum Essential Medium (EMEM) supplemented with 10% HI-FBS, and 1% penicillin-streptomycin. All cells were cultured at 37° C. and 5% CO2.
(§3) HT-1080, HepG2, Huh7, HLF, and SK-HEP-1 cells were seeded into opaque white 384-well plates at 1500 cells per well then incubated at 37° C. with 5% CO2 overnight. The next day, compounds of interest were dissolved in DMSO and 12-point 2-fold dilution series were prepared with and without Fer-1. Cells were treated in triplicate (final DMSO concentration of 0.4% in all wells, including DMSO-only control wells) and incubated for a further 48 hours at 37° C. and 5% CO2. Cell viability was evaluated using CellTiter-Glo (Promega G7573) and luminescence was recorded on a Victor 5 plate reader. Data were analyzed in GraphPad Prism 9 and error bars represent standard deviation values for three technical replicates in a representative experiment.

SK-HEP-1 cells = assay: Cellular dose response assay, SK-HEP-1; assay type: cell-based, human; conditions: Table 7
Text: as §2, §3

HepG2 cells = assay: Cellular dose response assay, HepG2; assay type: cell-based, human; conditions: Table 7
Text: as §2, §3

HLF cells = assay: Cellular dose response assay, HLF; assay type: cell-based, human; conditions: Table 7
Text: as §2, §3

[4] = tested on: DTP cells derived from PC9; assay: Drug-tolerant persister cell model, DTP cells; conditions: for % Viability Persister: 48 hours
[5] = not given; remark: listed apart in the source
[6] = compounds alone, Table 7, read-out: IC50 (uM) HT1080^a
[7] = with fer-1, Table 7, read-out: IC50 (uM) HT1080^b
[8] = compounds alone, read-out: IC50 (uM) Huh7^a
[9] = with fer-1, read-out: IC50 (uM) Huh7^b
[10] = compounds alone, read-out: IC50 (uM) SKHEP1^a
[11] = with fer-1, read-out: IC50 (uM) SKHEP1^b
[12] = compounds alone, read-out: IC50 (uM) HEPG2^a
[13] = with fer-1, read-out: IC50 (uM) HEPG2^b
[14] = HT1080 + Fer-1, read-out: IC50 (uM) HT1080 + Fer-1
[15] = HT1080, without Fer-1, read-out: IC50 (uM) HT1080

Microsome Stability t1/2 (min) human (in vitro [1])	Microsome Stability t1/2 (min) mouse (in vitro [2])	IC50 (HT-1080 cells; [14])	IC50 (HT-1080 cells; [15])	GPX4% inhibition at 2.5 μM (GPX4)	Plasma Stability t1/2 (min) mouse	Plasma Stability t1/2 (min) human [5]	SMILES	Selectivity (HT-1080 cells; HT1080 + Fer-1 vs HT1080)	also measured
19.5 min	13.0 min	1.8 µM	1.6 µM	55.4 ± 8.1%	25.4 min	245 min	COc1c(Cl)cc(-c2ccc3c(C(=O)NC(C)(C)C(C)OC(=O)CCl)nn(C)c3c2)cc1Cl (racemic) [QW-745]	1.1	–
–	–	–	–	35.8 ± 14.3%	23.8 min	16.6 min	COc1ccc(-c2ccc3c(C(=O)NC(COC(=O)CCl)C(F)(F)F)nn(C)c3c2)cc1Cl (stereo not drawn) [QW-686]	–	–
17 min	19 min	18.2 µM	2.4 µM	68.0 ± 45.2%	4.7 min	47.9 min	Cn1nc(C(=O)NC(C)(C)COC(=O)CCl)c2ccc(-c3ccc(OC(F)(F)F)c(Cl)c3)cc21 [QW-672]	7.6	–
15 min	19 min	–	–	33.6 ± 6.5%	311 min	243 min	COc1ccc(-c2ccc3c(C(=O)NC(C)(C)CNC(=O)CCl)nn(C)c3c2)cc1Cl [QW-628]	–	–

The next lines start with the compound.

SMILES	Microsome Stability t1/2 (min) human (in vitro [1])	Microsome Stability t1/2 (min) mouse (in vitro [2])	IC50 (HT-1080 cells; [14])	IC50 (HT-1080 cells; [15])	GPX4% inhibition at 2.5 μM (GPX4)	Plasma Stability t1/2 (min) mouse	Plasma Stability t1/2 (min) human [5]	Selectivity (HT-1080 cells; HT1080 + Fer-1 vs HT1080)	also measured
Cn1nc(C(=O)NC(C)(C)COC(=O)CCl)c2ccccc21 [QW-312]	2.9 min	1.7 min	–	–	–	–	–	–	IC50 (HT-1080 cells; [6]): 5.4 µM; IC50 (HT-1080 cells; [7]): 76.3 µM; GPX4% inhibition at 20 (μM) (GPX4): 72.5 ± 6.7%; GPX4 inhibition (GPX4): complete inhibition; GPX4% inhibition at 200 (μM) (GPX4): 95.8 ± 4.0%; Solubility ([3]; aqueous solubility, Table 9): 98 µM (≈ 31.7 µg/mL); IC50 (Huh7 cells; [8]): 4.2 µM; IC50 (Huh7 cells; [9]): 122 µM; IC50 (SK-HEP-1 cells; [10]): 28.4 µM; IC50 (SK-HEP-1 cells; [11]): 202 µM; IC50 (HepG2 cells; [12]): 26.2 µM; IC50 (HepG2 cells; [13]): 180 µM; IC50 (HLF cells; compounds alone, read-out: IC50 (uM) HLF^a): 2.5 µM; IC50 (HLF cells; with fer-1, read-out: IC50 (uM) HLF^b): 58.1 µM
CC(C)(NC(=O)c1nn(Cc2ccc(Cl)cc2)c2cc(-c3ccc(N4CCOCC4)c(Cl)c3)ccc12)C(C)(C)OC(=O)CCl [QW-811]	–	–	–	–	–	–	–	–	Selectivity (HT-1080 cells; IC50 with Fer-1 / IC50): 45.4; IC50 (HT-1080 cells; with Fer-1, Table 10, read-out: IC50 (μM) HT1080 + Fer-1): 12.7 µM; IC50 (HT-1080 cells; without Fer-1, Table 10, read-out: IC50 (μM) HT1080): 0.28 µM; selectivity for DTPs vs PC9 parental cells, result in words [4]: selective and similar or stronger cytotoxicity to DTP cells; % Viability Persister ([4]; dose 1.0 μM): 93.00%; % Viability Persister ([4]; dose 10.0 μM): 4.75%; GPX4% inhibition at 2.5 μM (GPX4; 4th generation): 47.4 ± 8.9%
COc1ccc(-c2ccc3c(C(=O)NC(C)(C)COC(=O)CCl)nn(C)c3c2)cc1 [QW-454]	1.8 min	1.7 min	11.5 µM	0.94 µM	–	–	–	12.2	ferroptosis induction / potency in HT-1080 cells, result in words (HT-1080 cells): sub-molar range cellular activities and decreased ferroptosis selectivity; GPX4% inhibition at 5 μM (GPX4): 86.8 ± 2.6%; Solubility ([3]; 1% DMSO, Phosphate Buffered Saline pH 7.4, 1 hour, ambient, UV/Vis absorbance): 2.9 µM (≈ 1.25 µg/mL); Solubility ([3]; aqueous solubility, Table 9): 2.9 µM (≈ 1.25 µg/mL)
COc1c(Cl)cc(-c2ccc3c(C(=O)NC(C)(C)C(C)(C)OC(=O)CCl)nn(C)c3c2)cc1Cl [QW-750]	10.2 min	13.5 min	5.4 µM	1.6 µM	20.4 ± 3.6%	>1000 min	290 min	3.4	ferroptosis induction / potency in HT-1080 cells, result in words (HT-1080 cells): moderate potency
COc1ccc(CNS(=O)(=O)c2ccc(-c3ccc4c(C(=O)NC(C)(C)COC(=O)CCl)nn(C)c4c3)cc2)cc1 [QW-658]	–	–	14.6 µM	3.5 µM	26.3 ± 63.2%	6.2 min	12.5 min	4.2	GPX4% inhibition at 5 μM (GPX4): 20.9 ± 14.0%
CC(C)(COC(=O)CCl)NC(=O)c1n[nH]c2cc(Br)ccc12 [QW-313]	9.7 min	12.1 min	–	–	–	–	–	–	IC50 (HT-1080 cells; [6]): 20.4 µM; IC50 (HT-1080 cells; [7]): 58.8 µM; GPX4% inhibition at 20 (μM) (GPX4): 53.8 ± 12.1%; GPX4 inhibition (GPX4): complete inhibition; GPX4% inhibition at 200 (μM) (GPX4): 97.6 ± 2.5%; Solubility ([3]; aqueous solubility, Table 9): 47 µM (≈ 18.3 µg/mL); IC50 (Huh7 cells; [8]): 17 µM; IC50 (Huh7 cells; [9]): 58.2 µM; IC50 (SK-HEP-1 cells; [10]): 47 µM; IC50 (SK-HEP-1 cells; [11]): 63.7 µM; IC50 (HepG2 cells; [12]): 12.8 µM; IC50 (HepG2 cells; [13]): 63.1 µM
CC(OC(=O)CCl)C(C)(C)NC(=O)c1nn(C)c2cc(-c3ccc(N4CCOCC4)c(Cl)c3)ccc12 (racemic) [QW-737]	8.6 min	7.4 min	1.7 µM	1 µM	86.4 ± 7.3%	6.6 min	275 min	1.7	–
Cn1nc(-n2cc(C(C)(C)COC(=O)CCl)nn2)c2ccc(-c3ccc(N4CCOCC4)c(Cl)c3)cc21 [QW-680]	28 min	26 min	12.1 µM	3 µM	57.3 ± 2.8%	3.2 min	67.4 min	4.0	–
